Entries after “also recorded” stand apart in the source; their conditions may differ. Marks after values point to notes of the source that are not given here.
Key:
α1β2γ2 GABAA receptors = target: T1, α1β2γ2 GABAA receptors (Homo sapiens, UniProt P14867+P18507+P47870); test: Whole-cell patch clamp, potentiation of GABA EC20 currents at recombinant synaptic-type receptors (LTK cells); type: cell-based; settings: n = 3; for EC50: α1β2γ2, GABA EC20 (2 μM)
T1 construct: expressed in transfected cells
Procedure: (§1) Cellular electrophysiology was used to measure the pharmacological properties of ALLO, ganaxolone and SGE-516 in heterologous cell systems. Compounds were tested for their ability to affect GABA mediated currents at a submaximal agonist dose (GABA EC20=2 μM).
(§2) LTK cells were stably transfected with the α1β2γ2 subunits of the GABA receptor and CHO cells are transiently transfected with the α4β3γ subunits via the Lipofecatamine method. Cells were passaged at a confluence of about 50-80% and then seeded onto 35 mm sterile culture dishes containing 2 ml culture complete medium without antibiotics or antimycotics. Cells were cultivated at a density that enabled the recording of single cells without visible connections to other cells.
(§3) Whole-cell currents were measured with HEKA EPC-10 amplifiers using PatchMaster software. Bath solution for all experiments contained (in mM): NaCl 137, KCl 4, CaCl2 1.8, MgCl2 1, HEPES 10, D-Glucose 10, pH 7.4 with NaOH. Intracellular (pipette) solution contained (in mM): KCl 130, MgCl2 1, Mg-ATP 5, HEPES 10, EGTA 5, pH 7.2 with KOH. During experiments, cells and solutions were maintained at room temperature (19° C.-30° C.). For manual patchclamp recordings, cell culture dishes were placed on the dish holder of the microscope and continuously perfused (1 ml/min) with bath solution. After formation of a Gigaohm seal between the patch electrode and the cell (pipette resistance range: 2.5 MΩ-6.0MΩ; seal resistance range: >1 GΩ) the cell membrane across the pipette tip was ruptured to assure electrical access to the cell interior (whole-cell patch configuration).
(§4) Cells were voltage-clamped at a holding potential of −80 mV. GABAA receptors were activated by 2 μM GABA and compounds were sequentially applied at increasing concentrations for 30 s prior to a 2 s application of GABA. GABA and compounds were applied to cells via the Dynaflow perfusion system (Cellectricon, Sweden). Test compounds were dissolved in DMSO to form 10 mM stock solution and serially diluted to 0.01, 0.1, 1, and 10 μM in bath solution. […] All concentrations of test compound were tested on each cell. The relative percentage potentiation was defined as the peak amplitude in response to GABA EC20 in the presence of test compound divided by the peak amplitude in response to GABA EC20 alone, multiplied by 100.
(§5) ALLO and ganaxolone are known PAMs of both synaptic and extrasynaptic GABAAR-mediated currents. […] The α1β2γ2 or α4β3δ subunit combinations were chosen as representatives of typical synaptic and extrasynaptic GABAA receptors respectively.

[1] = system: sIPSCs in dentate gyms granule cells (DGGCs); test: Acute (allosteric) modulation of sIPSCs in DGGCs of hippocampal slices; type: cell-based, mice
Procedure: (§6) Brain slices were prepared from 3- to 5-week-old male C57 mice. Mice were anesthetized with isoflurane, decapitated, and brains were rapidly removed and submerged in ice-cold cutting solution containing (mM): 126 NaCl, 2.5 KCl, 0.5 CaCl2, 2 MgCl2, 26 NaHCO3, 1.25 NaH2PO4, 10 glucose, 1.5 sodium pyruvate, and 3 kynurenic acid. Coronal 310 μm thick slices were cut with the vibratome VT1000S (Leica Microsystems, St Louis, Mo., USA). The slices were then transferred into incubation chamber filled with prewarmed (31-32° C.) oxygenated artificial cerebro-spinal fluid (ACSF) of the following composition (in mM): 126 NaCl, 2.5 KCl, 2 CaCl2, 2 MgCl2, 26 NaHCO3, 1.25 NaH2PO4, 10 glucose, 1.5 sodium pyruvate, 1 glutamine, 3 kynurenic acid and 0.005 GABA bubbled with 95% O2-5% CO2. Slices were allowed to recover at 32° C. for at least 1 hr before recording. Exogenous GABA was added in an attempt to standardize ambient GABA in the slice and provide an agonist source for newly inserted extrasynaptic GABAARs.
(§7) After recovery, a single slice was transferred to a submerged, dual perfusion recording chamber (Warner Instruments, Hamden, Conn., USA) on the stage of an upright microscope (Nikon FN-1) with a 40× water immersion objective equipped with DIC/IR optics. Slices were maintained at 32° C. and gravity-superfused with ACSF solution throughout experimentation and perfused at rate of 2 ml/min with oxygenated (O2/CO2 95/5%) ACSF.
(§8) Whole-cell currents were recorded from the dentate gyms granule cells (DGGCs) in 310-μm-thick coronal hippocampal slices. Patch pipettes (5-7MΩ) were pulled from borosilicate glass (World Precision Instruments) and filled with intracellular solution of the composition (in mM) as follows: 140 CsCl, 1 MgCl2, 0.1 EGTA, 10 HEPES, 2 Mg-ATP, 4 NaCl and 0.3 Na-GTP (pH=7.2 with CsOH). A 5 min period for stabilization after obtaining the whole-cell recording conformation (holding potential of −60 mV) was allowed before currents were recorded using an Axopatch 200B amplifier (Molecular Devices), low-pass filtered at 2 kHz, digitized at 20 kHz (Digidata 1440A; Molecular Devices), and stored for offline analysis.
(§9) For tonic current measurements, an all-points histogram was plotted for a 10 s period before and during 100 μM picrotoxin application, once the response reached a plateau level. Recordings with unstable baselines were discarded. Fitting the histogram with a Gaussian distribution gave the mean baseline current amplitude and the difference between the amplitudes before and during picrotoxin was considered to be the tonic current. The negative section of the all-points histogram which corresponds to the inward IPSCs was not fitted with a Gaussian distribution (Kretschmannova et al., 2013; Nusser and Mody, 2002). Series resistance and whole-cell capacitance were continually monitored and compensated throughout the course of the experiment. Recordings were eliminated from data analysis if series resistance increased by >20%. Spontaneous inhibitory post-synaptic currents (sIPSCs) were analyzed using the mini-analysis software (version 5.6.4; Synaptosoft, Decatur, Ga.). Minimum threshold detection was set to 3 times the value of baseline noise signal. To assess sIPSC kinetics, the recording trace was visually inspected and only events with a stable baseline, sharp rising phase, and single peak were used to negate artifacts due to event summation. Only recordings with a minimum of 200 events fitting these criteria were analyzed. sIPSCs amplitude, and frequency from each experimental condition was pooled and expressed as mean±SEM. To measure sIPSC decay, 100 consecutive events were averaged and the decay was fitted to a double exponential and the weighted decay constant (tw) was determined. Statistical analysis was performed by using Student t-test (paired and unpaired where appropriate), where p<0.05 is considered significant.

[2] = system: GABA receptor trafficking; test: GABA receptor trafficking measured by GABAergic current density (FIG. 14); type: cell-based; settings: measured by the GABAergic current density
Source text: As shown in above examples, not all neurosteroids can modulate GABA receptor trafficking.

[3] = system: tonic current in dentate gyms granule cells (DGGCs); test: Sustained (metabotropic) enhancement of tonic current in DGGCs after 15 min exposure and washout; type: cell-based, mice
Procedure: as §6, §7, §8, §9

α4β3δ GABAA receptors = target: T2, α4β3δ GABAA receptors (Homo sapiens, UniProt O14764+P28472+P48169); test: Whole-cell patch clamp, potentiation of GABA EC20 currents at recombinant extrasynaptic-type receptors (CHO cells); type: cell-based
T2 construct: expressed in transfected cells; host or cells: CHO cells (transient transfection, Lipofectamine)
Procedure: as §1, §2, §3, §4, §5

[4] = system: tonic current in dentate gyms granule cells (DGGCs); test: Acute (allosteric) modulation of tonic current in DGGCs of hippocampal slices; type: cell-based, mice; settings: 100 nM, 10 min acute exposure, then 100 μM picrotoxin; mean±SEM
Procedure: as §6, with “GABAARs. […]” for “GABAARs.”
Whole-cell currents were recorded from the dentate gyms granule cells (DGGCs) in 310-μm-thick coronal hippocampal slices. […] A 5 min period for stabilization after obtaining the whole-cell recording conformation (holding potential of −60 mV) was allowed before currents were recorded using an Axopatch 200B amplifier (Molecular Devices), low-pass filtered at 2 kHz, digitized at 20 kHz (Digidata 1440A; Molecular Devices), and stored for offline analysis.
For tonic current measurements, an all-points histogram was plotted for a 10 s period before and during 100 μM picrotoxin application, once the response reached a plateau level. […] Series resistance and whole-cell capacitance were continually monitored and compensated throughout the course of the experiment. […] Spontaneous inhibitory post-synaptic currents (sIPSCs) were analyzed using the mini-analysis software (version 5.6.4; Synaptosoft, Decatur, Ga.). […] Only recordings with a minimum of 200 events fitting these criteria were analyzed. sIPSCs amplitude, and frequency from each experimental condition was pooled and expressed as mean±SEM. […]

[5] = system: GABAA receptor β3 subunit S408/9 phosphorylation; test: Immunoblot of β3 S408/9 phosphorylation in hippocampal slices; type: cell-based, mice; settings: 100 nM
Procedure: Hippocampi were dissected out of acute slices from 8 to 12 week old C57/B16 mice and lysed with phosphate buffer including: 20 mM Tris-HCl, 150 mM NaCl, 5 mM EDTA, 10 mM NaF, 2 mM Na3VO4, 10 mM pyrophosphate, 0.1% SDS and 1% Triton after drug treatment. The β3 subunit was isolated using immunoprecipitation with β3 antibodies, after correction for protein content and the specific activity of labeling. Results were attained by SDS/PAGE followed by autoradiography (Abramian et al., 2010). For biotinylation experiments hippocampi were dissected out of acute slices from 8 to 12 week old C57/B16 mice and incubated in artificial cerebrospinal fluid (ACSF) described above at 30° C. for 1 h for recovery before experimentation. Slices were then placed on ice and incubated for 30 min with 1 mg/mL NHS-SS-biotin (Pierce). Excess biotin was removed by a 50 mM glycine quenching buffer, followed by washing of slices three times in ice-cold ACSF. The tissue was snap frozen on dry ice for 5 min, thawed at 4° C. and lysed. The lysates were solubilized with 2% Triton at 4° C. on a rotating wheel for 1 h. The insoluble material was removed by centrifugation, and 350-500 μg of protein lysate were incubated with NeutrAvidin beads (Pierce) for 18-24 h at 4° C. Bound material was eluted with sample buffer and subjected to SDS/PAGE and then immunoblotted with the indicated antibodies. Blots were then quantified using the CCD-based ChemiDoc XRS ? system. Antibodies against the β3 subunit and the phospho-β3 antibody were generated and verified by the laboratory of S.J.M. (Vien et al., 2015).
To produce antibodies specific for phosphorylated S443, rabbits were injected with a synthetic peptide corresponding to residues […] of the murine α4 subunit in which the serine residue corresponding to S443 was chemically phosphorylated; […]. Hippocampal slices were treated with vehicle (Con), or SGE-516 for 20 min. Slices were immunoblotted with pS408/9, β3, or actin antibodies. The ratio of pS408/9/β3 immunoreactivity was then normalized to control slices (100%=the line).
Hippocampal slices were treated with 100 nM ALLO or P4 (progesterone), and S408/9 phosphorylation was then determined as detailed above, n=4 slices (FIG. 18D). Hippocampal slices were treated with 100 nM ORG (FIG. 18E). S408/9 phosphorylation was examined using immunoblotting.

[6] = system: GT1-7 cells (co-express mPRα and GABAARs), β3 S408/9 phosphorylation; test: Immunoblot of β3 S408/9 phosphorylation in GT1-7 cells; type: cell-based; settings: 100 nM, 15 min; n=6
Procedure: GT1-7 cells that co-express mPRα and GABAARs were used to measure the level of phosphorylation at S408/9 position of β3 subunit. Quantitative PCR analysis indicated the enrichment of the mPRα mRNA in GT1-7 cells (FIG. 15A upper, figure taken from Thomas and Pang 2012). Expression of mPRα was confirmed using western blotting. 10 and 15 μg of SDS-soluble extracts from GT1-7 cells were immunoblotted with an mPRα specific antibody (FIG. 15A lower).
GT1-7 cells were treated with 100 nM AllO or P4 for 15 min and immunoblotted with antibodies specifically recognizing β3, actin, and […] β3 subunit (pS408/9). The ratio of pS408/9 β3 subunit immunoreactivity were then normalized to levels seen in vehicle treated to controls, n=6.

[7] = system: tonic current in dentate gyms granule cells (DGGCs); settings: Abramian et al., 2010, 2014; cited from earlier work
[8] = 100 nM acute exposure, n = 5 to 7 neurons

T1 sequence (P14867 28-456): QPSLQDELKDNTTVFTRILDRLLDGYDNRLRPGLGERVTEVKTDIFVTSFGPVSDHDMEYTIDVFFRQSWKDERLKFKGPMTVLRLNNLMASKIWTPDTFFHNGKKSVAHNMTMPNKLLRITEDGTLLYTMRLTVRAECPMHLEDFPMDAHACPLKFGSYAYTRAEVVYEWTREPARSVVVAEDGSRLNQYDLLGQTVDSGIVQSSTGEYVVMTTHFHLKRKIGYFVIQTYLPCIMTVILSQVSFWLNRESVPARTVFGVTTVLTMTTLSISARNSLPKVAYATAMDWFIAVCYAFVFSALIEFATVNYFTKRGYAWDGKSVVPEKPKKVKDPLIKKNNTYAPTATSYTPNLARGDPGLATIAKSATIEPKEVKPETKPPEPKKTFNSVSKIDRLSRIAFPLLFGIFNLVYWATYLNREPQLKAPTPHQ
T1 sequence (P47870 25-512 limits assumed): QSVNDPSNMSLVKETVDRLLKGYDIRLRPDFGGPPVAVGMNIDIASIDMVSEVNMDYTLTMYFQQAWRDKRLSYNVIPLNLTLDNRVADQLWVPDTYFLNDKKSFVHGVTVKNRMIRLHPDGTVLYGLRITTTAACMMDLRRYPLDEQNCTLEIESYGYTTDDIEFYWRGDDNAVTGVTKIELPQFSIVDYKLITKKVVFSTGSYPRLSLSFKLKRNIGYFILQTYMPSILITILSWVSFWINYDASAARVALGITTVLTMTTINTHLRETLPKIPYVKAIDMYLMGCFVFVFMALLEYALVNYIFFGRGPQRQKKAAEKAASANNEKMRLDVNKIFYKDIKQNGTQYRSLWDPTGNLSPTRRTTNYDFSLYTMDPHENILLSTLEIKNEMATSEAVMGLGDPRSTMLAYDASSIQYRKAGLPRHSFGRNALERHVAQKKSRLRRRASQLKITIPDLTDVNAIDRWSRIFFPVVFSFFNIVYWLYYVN
T1 sequence (P18507 40-475): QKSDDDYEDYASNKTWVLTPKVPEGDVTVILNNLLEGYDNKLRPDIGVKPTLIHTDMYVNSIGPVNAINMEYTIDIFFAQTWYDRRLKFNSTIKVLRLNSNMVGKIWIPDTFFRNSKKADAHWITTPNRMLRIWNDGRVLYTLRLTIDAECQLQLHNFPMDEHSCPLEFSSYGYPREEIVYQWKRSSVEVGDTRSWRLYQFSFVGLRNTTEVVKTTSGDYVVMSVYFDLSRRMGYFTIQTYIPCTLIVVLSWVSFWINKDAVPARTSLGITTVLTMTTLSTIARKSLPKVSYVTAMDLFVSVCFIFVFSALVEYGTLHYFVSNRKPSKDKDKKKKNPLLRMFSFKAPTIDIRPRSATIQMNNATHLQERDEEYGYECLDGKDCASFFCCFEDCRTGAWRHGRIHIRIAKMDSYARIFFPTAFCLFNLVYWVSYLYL
T2 sequence (P48169 36-554): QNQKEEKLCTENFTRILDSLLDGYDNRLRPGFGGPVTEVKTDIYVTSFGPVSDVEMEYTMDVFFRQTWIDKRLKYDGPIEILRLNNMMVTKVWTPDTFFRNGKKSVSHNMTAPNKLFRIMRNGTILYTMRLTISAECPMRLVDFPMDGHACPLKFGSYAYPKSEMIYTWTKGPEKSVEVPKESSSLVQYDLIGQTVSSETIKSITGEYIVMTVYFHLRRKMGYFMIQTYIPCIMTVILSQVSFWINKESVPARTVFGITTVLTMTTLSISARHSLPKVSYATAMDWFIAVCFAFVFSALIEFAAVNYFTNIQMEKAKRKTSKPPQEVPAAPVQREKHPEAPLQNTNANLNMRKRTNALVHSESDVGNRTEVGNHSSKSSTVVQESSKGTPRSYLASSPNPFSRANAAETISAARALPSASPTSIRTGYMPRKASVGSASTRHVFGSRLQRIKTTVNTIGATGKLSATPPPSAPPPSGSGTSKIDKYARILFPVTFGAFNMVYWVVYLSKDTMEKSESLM
T2 sequence (P28472 26-473): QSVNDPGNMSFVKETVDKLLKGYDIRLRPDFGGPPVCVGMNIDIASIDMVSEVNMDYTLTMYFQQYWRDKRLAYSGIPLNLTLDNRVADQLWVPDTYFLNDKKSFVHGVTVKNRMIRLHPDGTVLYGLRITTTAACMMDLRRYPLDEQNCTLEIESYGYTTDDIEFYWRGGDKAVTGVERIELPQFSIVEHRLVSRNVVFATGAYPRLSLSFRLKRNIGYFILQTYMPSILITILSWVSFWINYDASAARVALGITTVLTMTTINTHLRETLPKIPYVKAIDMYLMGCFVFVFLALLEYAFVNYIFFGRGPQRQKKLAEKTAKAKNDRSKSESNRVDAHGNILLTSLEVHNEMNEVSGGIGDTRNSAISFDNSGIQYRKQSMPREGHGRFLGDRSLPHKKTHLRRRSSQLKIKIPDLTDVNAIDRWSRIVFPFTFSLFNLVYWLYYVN
T2 sequence (O14764 25-452): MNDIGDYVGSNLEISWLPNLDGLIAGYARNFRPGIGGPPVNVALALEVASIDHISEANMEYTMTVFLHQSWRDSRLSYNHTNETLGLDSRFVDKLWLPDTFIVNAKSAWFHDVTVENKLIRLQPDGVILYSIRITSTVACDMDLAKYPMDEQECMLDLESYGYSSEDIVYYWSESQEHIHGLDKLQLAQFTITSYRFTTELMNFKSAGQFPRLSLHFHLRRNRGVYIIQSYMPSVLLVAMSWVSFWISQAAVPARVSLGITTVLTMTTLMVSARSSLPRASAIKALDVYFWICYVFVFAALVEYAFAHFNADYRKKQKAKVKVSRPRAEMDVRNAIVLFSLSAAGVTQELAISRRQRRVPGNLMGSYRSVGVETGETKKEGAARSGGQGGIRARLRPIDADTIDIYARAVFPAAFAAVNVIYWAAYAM

Compound: CC(=O)[C@H]1CC[C@H]2[C@@H]3CC[C@H]4C[C@](C)(O)CC[C@]4(C)[C@H]3CC[C@]12C [Ganaxolone]
- EC50 (α1β2γ2 GABAA receptors; EC50, potentiation of GABA current): 256 nM
- EC50 (α1β2γ2 GABAA receptors; pEC50 ± S.E.M.): 158 nM
- Emax ± S.E.M., α1β2γ2 (α1β2γ2 GABAA receptors; relative percentage potentiation of GABA EC20 peak current): 400 ± 27%
- mean sIPSC amplitude before versus during exposure ([1]; 100 nM): no significant difference
- mean sIPSC decay time in the presence of compound ([1]; 100 nM): significantly increased
- sIPSC Amplitude [1, 8]: 55.1 ± 0.7 pA
- sIPSC Decay [1, 8]: 23.6 ± 2.9^c ms
- sIPSC Frequency [1, 8]: 5.6 ± 1.7 Hz
- modulation of GABA receptor trafficking [2]: did not modulate GABA receptor trafficking
- tonic current after exposure and washout ([3]; 1 μM, 15 min incubation, 30-60 min wash, vehicle 43.9±5.7 pA): 57.4±6.3 pA
- change of tonic current versus vehicle ([3]; 1 μM, 15 min incubation, wash): did not significantly alter; also recorded: No significant change
- EC50 (α4β3δ GABAA receptors): 94 nM
- Emax (α4β3δ GABAA receptors; CHO, relative percentage potentiation of GABA EC20 peak current, n = 3, read-out: Emax ± S.E.M., α4β3δ): 225%
- Emax ± S.E.M., α4β3δ (α4β3δ GABAA receptors; relative percentage potentiation of GABA EC20 peak current, n = 3): 225 ± 8%
- tonic current during acute exposure [4]: 78.8±23.2 pA

Compound: CN1C(=O)CN=C(c2ccccc2)c2cc(Cl)ccc21 [diazepam]
- Emax (α1β2γ2 GABAA receptors; LTK, relative percentage potentiation of GABA EC20 peak current, read-out: Emax ± S.E.M., α1β2γ2): 184%
- effect on GABA evoked currents in α4β3δ receptors (α4β3δ GABAA receptors; data not shown): did not alter

Compound: C[C@@]1(O)CC[C@H]2[C@H](CC[C@@H]3[C@@H]2CC[C@]2(C)[C@@H](C(=O)Cn4cc(C#N)cn4)CC[C@@H]32)C1 [SAGE-217]
- modulation of GABA receptor trafficking [2]: modulated GABA receptor trafficking

Compound: CC(=O)[C@H]1CC[C@H]2[C@@H]3CCC4=CC(=O)CC[C@]4(C)[C@H]3CC[C@]12C [P4, Progesterone]
- amplitude and density of GABAergic tonic current at varying doses ([3]; protocol as in FIG. 3, n=6-8 cells): dosage-dependent effect; also recorded: dosage dependent effect
- S408/9 phosphorylation in hippocampal slices [5]: regulated
- S408/9 phosphorylation (pS408/9/β3) in GT1-7 cells [6]: increase

Compound: C[C@]12CC[C@@H](O)C[C@H]1CC[C@@H]1[C@@H]2CC[C@]2(C)[C@@H](C(=O)CO)CC[C@@H]12 [THDOC, Tetrahydrodeoxy- corticosterone]
- sustained effects on GABAergic tonic current [7]: long lasting increase

Reference: patent US20200341000A1, “METHOD OF SCREENING COMPOUNDS FOR TREATING CNS DISORDERS” (SAGE THERAPEUTICS, INC., priority 2017, published 2020)
